Earlier results on 1 compound are cited in patent publication US20220096371A1, “BIODEGRADABLE MICRONEEDLE SYSTEM WITH SUSTAINED RELEASE” (University of Connecticut, priority 2020, published 2022).

Where [1] appears, read: 81 mg ASA oral pill, by HPLC, used as target for MN system.

Structures are written as SMILES.

Regarding `CC(=O)Oc1ccccc1C(=O)O` [ASA, acetylsalicylic acid], under setting [1], the “ACU (area under the curve)” value is given as about 865 ng/ml.hr and the “average daily plasma concentration” value is about 100 ng/mL. For the same compound, the bioavailability (oral use) is about 20%.
